We go through one substance from US10203331B2, “Single cell drug response measurements via live cell interferometry” (The Regents of the University of California, priority 2011, dated 2019).

Entries after “also recorded” stand apart in the source; their conditions may differ.

What all share (type): cell-based, human
Assay [1] concerns XBP1 mRNA splicing (XBP1-s). In words: RT-PCR for XBP1 spliced and unspliced isoforms in treated H929 cells. Conditions: treated H929 population, over five hours. On the procedure: (§1) H929 cells were seeded in 6-well culture plates at a density of 1×10^6 cells/well. Before plating cells in the LCI's observation chamber, either 1 μL of Tunicamycin (T7765; Sigma-Aldrich) in DMSO, or DMSO alone were added to the media at a concentration of 10 mg/ml, DMSO/media (1:1000 dilution). Mass measurements commenced one hour after the cells were plated in the observation chamber in order to allow the experimental system to stabilize, i.e.; culture acclimation, temperature stabilization, etc. For cell cycle analysis, cells from each time point were collected and incubated with a hypotonic DNA-staining buffer containing propidium iodide and later analyzed by flow cytometry. RNA for each time point was extracted using the Trizol reagent (Invitrogen).
(§2) CDNA was synthesized from 3 μg of total RNA with oligo(dT) primers using the Superscript III first strand cDNA synthesis kit (Invitrogen). RT-PCR for XBP1 spliced and unspliced isoforms were performed using Platinum Taq (Invitrogen) at an annealing temperature of 58° C. for 25 cycles. Quantitative RT-PCR for CHOP (DDIT3) mRNA was performed using the SYBR green real time PCR kit (Diagenode) and an Applied Biosystems (Foster City, Calif., USA) 7700 sequence detector as described (33). Samples were analyzed for 36b4 expression as a normalization control. Primer sequences are available on request.

Assay [2] has as its system CHOP (DDIT3) mRNA. In words: Quantitative RT-PCR for CHOP (DDIT3) mRNA in treated H929 cells. Conditions: treated H929 population, over five hours. On the procedure:
as §1, §2

Assay [3] concerns H929 cells. The experiment in a line: Cell cycle analysis, propidium iodide flow cytometry. On the procedure:
as §1
On the technique in general: Flow cytometry measures light scatter and fluorescence of single cells or particles in a stream.

Assay [4] has as its system H929 multiple myeloma cells. The experiment in a line: LCI longitudinal single-cell mass accumulation profiling. Particulars: for mass accumulation rate (growth) of treated cells versus DMSO-treated controls: Tunicamycin, data over five hours. On the set-up: mass accumulation rate (growth) of treated cells versus DMSO-treated controls: dose or concentration left out as unconfirmed. The source says:
The live cell interferometer has been described in detail previously (1). Briefly, the system is an optical microscope, based on a modified Veeco NT9300 optical profiler, with a 20×0.28NA Michelson interference objective that allows for the observation of not only lateral features with typical optical resolution (1.16 μm for the 20× objective) but also height dimensions of reflective objects below the scale of one nanometer. The Michelson interferometer is composed of a beam splitter, reference mirror and compensating fluid cell to adjust for optical path differences induced by fluid surrounding the specimen. The phase shifting interferometry (PSI) (14) method was used to capture phase images of the cell bodies in situ. During measurement, a piezoelectric translator decreases the light path a small amount causing a phase shift between the test and reference beams. The system records the irradiance of the resulting interference pattern at many different phase shifts and then converts the irradiance to phase wavefront data by integrating the irradiance data using a PSI algorithm. As currently implemented, the autofocus and PSI measurement cycle takes 12 seconds. The PSI measurement itself takes 1-2 seconds, and is limited by the camera frame rate (60 fps). In this experiment, one set of 25 images, containing 400-1,000 cells, was captured every 7 minutes. Each set of 25 images contained hundreds of cells, with data from the first five images presented here, and therefore each run includes ˜80 cells. All cells within each of the selected images were measured.
The software native to the Veeco NT9300 allows automated optical thickness measurements of cells selected manually from the phase image. The optical thickness is converted to mass as described in the text, using the conversion constant, α=1.8×10^−3 m^3 kg^−1, consistent with Ross. (9) The boundary of each cell was automatically selected by an algorithm that partitions objects from the background using a threshold determined from the histogram of pixel heights. (15) Conversion of the raw phase image into optical thickness uses a series of well established ‘phase unwrapping’ routines. […] This error is easily detected as a non-physical discontinuity in optical thickness, and corrected by adding back one wavelength of optical thickness to the affected pixels. […]
H929 human multiple myeloma cells were maintained at 37° C. in 5% CO2 in RPMI 1640 growth media supplemented with 10% defined fetal bovine serum (HyClone) and antibiotics. […] Cell responses to external stimuli were measured for as long as seven hours in this configuration, and observed unperturbed cultures for up to twelve hours, although the upper limit of experiment duration has not been determined. […]

For the substance Tunicamycin, the “XBP1 alternative splicing (spliced form XBP1-s)” value in assay [1] is recorded as “alternative splicing”; in assay [1] (listed as TM), “up-regulation”. The “CHOP transcription factor expression” value in assay [2] is reported as “up-regulation”. Besides, the “cells in G1/G0” value in assay [3] (by the end of five hours of treatment) is 50%. In assay [3] (shift pronounced after three hours of exposure), the G2/M phase population result is reported as “rapid reduction”. In addition, the “time at which suppression of growth of the treated population appears” value in assay [4] (H929, treated vs untreated) is recorded as “within two hours”. Also, the “mass accumulation rate (growth) of treated cells versus DMSO-treated controls” value in assay [4] is listed as “grow more slowly than do the controls; also recorded: much lower”; in assay [4] (listed as TM), “slowing mass accumulation”. Moreover, in assay [4] (with induction of XBP1 mRNA splicing), the “cell shrinkage or apoptosis” value is listed as “not cell shrinkage or apoptosis”.
